pIC50: −log10 of the molar value. Counter-ions that a name gives are not always drawn.
target: T1, URAT-1 transporter (Homo sapiens, UniProt Q96S37); assay: URAT-1 inhibitor activity: [14C]-uric acid uptake into CHO-URAT1(L)GFP#8 (CHO#8) cells, scintillation proximity; type: cell-based
T1 construct: expressed in transfected cells
Source text: The nucleotide sequence for the long isoform of URAT1 (NM_144585) was C-terminally fused to that of enhanced green fluorescent protein (eGFP) (hereinafter referred to as URAT1(L)GFP). The combined sequence was codon-optimised and custom synthesized. The synthesized sequence was generated in pDONR221 Gateway entry vector (Invitrogen Life Technologies) prior to cloning in pLenti6.3/V5 Gateway destination vector (Invitrogen Life Technologies).
Lentiviral particles were generated according to ViraPower HiPerform expression system procedure (Invitrogen Life Technologies) and used to transduce CHO cells. Blasticidin selection enabled the generation of a stable clonal pool of cells, confirmed by expression of GFP and V5 epitope. The clonal pools were sorted using fluorescence-activated cell sorting (FACS) on the basis of GFP expression with the gating set at the top 50% of expression into single cells which were subsequently expanded to generate clonal lines. […] This cell line was used for all screening activities and is referred to as CHO-URAT1(L)GFP#8 or CHO#8.
The potency of the compounds of formula (I) as inhibitors of the URAT-1 transporter was determined as follows.
CHO#8 cells were cultured in cell line maintenance flasks in medium consisting of Dulbecco's modified Eagle medium (DMEM) with high glucose and sodium pyruvate (4.5 g of glucose per litre, Invitrogen Life Technologies), supplemented with heat-inactivated foetal bovine serum (FBC, 10% v/v), 1×NEAA (non-essential amino acids) and blasticidin (10 μg/ml). Cultures were grown in 175 cm^2 tissue culture flasks in a humidified incubator at approximately 37° C. in approximately 95% air/5% CO2. Near confluent CHO#8 cell cultures were harvested by trypsinisation, re-suspended in culture medium and the process was repeated once or twice weekly to provide sufficient cells for use.
Assay ready flasks were generated by the same method, except the cells were not cultured in blasticidin.
Assay ready frozen cells were generated by freezing 40,000,000 cells in 1 ml of FBS (without blasticidin) containing 10% DMSO per vial. One vial was sufficient for 5 assay plates. Each vial was thawed rapidly to 37° C., washed and re-suspended in pre-warmed culture medium for seeding onto assay plates.
CHO#8 cells were seeded onto Cytostar™ 96-well plates at a density of […]. The cells were cultured for 1 day at approximately 37° C. in a humidified incubator containing approximately 5% CO2 in air. After approximately 24 hours culture, cells were used for uptake experiments.
On the day of assay, culture medium was removed from the wells and the cells were washed once with 50 μL of chloride-containing buffer (136.7 mM NaCl, 5.36 mM KCl, 0.952 mM CaCl2, 0.441 mM KH2PO4, 0.812 mM MgSO4, 5.6 mM D-glucose, 0.383 mM Na2HPO4.2H2O, 10 mM HEPES, pH 7.4 with NaOH). The cells were pre-incubated with another 50 μL of chloride-containing buffer for one hour at approximately 37° C. in a humidified incubator containing approximately 5% CO2 in air.
Assay compound plates were prepared by diluting the compounds of formula (I) with chloride-free buffer (125 mM Na-gluconate, 4.8 mM K-gluconate, 1.3 mM Ca-gluconate, 1.2 mM KH2PO4, 1.2 mM MgSO4, 5.6 mM D-glucose, 25 mM HEPES, pH 7.4 with NaOH) in 100% DMSO to a final concentration of 1% DMSO. [^14C]-Uric Uric acid working stock was made by addition of radiolabeled compound to a final concentration of 120 nM in chloride-free buffer. In all wells, the final assay concentration of solvent (DMSO) was 0.25%; the final assay concentration of [^14C]-uric acid was 30 nM in chloride-free buffer and the final compound of formula (I) concentrations ranged from 0 to 10 μM.
After pre-incubation, cells were washed with 50 μL of chloride-free buffer and another 50 μL of chloride-free buffer was added. […]

T1 sequence (Q96S37 with tags, fused parts or gaps): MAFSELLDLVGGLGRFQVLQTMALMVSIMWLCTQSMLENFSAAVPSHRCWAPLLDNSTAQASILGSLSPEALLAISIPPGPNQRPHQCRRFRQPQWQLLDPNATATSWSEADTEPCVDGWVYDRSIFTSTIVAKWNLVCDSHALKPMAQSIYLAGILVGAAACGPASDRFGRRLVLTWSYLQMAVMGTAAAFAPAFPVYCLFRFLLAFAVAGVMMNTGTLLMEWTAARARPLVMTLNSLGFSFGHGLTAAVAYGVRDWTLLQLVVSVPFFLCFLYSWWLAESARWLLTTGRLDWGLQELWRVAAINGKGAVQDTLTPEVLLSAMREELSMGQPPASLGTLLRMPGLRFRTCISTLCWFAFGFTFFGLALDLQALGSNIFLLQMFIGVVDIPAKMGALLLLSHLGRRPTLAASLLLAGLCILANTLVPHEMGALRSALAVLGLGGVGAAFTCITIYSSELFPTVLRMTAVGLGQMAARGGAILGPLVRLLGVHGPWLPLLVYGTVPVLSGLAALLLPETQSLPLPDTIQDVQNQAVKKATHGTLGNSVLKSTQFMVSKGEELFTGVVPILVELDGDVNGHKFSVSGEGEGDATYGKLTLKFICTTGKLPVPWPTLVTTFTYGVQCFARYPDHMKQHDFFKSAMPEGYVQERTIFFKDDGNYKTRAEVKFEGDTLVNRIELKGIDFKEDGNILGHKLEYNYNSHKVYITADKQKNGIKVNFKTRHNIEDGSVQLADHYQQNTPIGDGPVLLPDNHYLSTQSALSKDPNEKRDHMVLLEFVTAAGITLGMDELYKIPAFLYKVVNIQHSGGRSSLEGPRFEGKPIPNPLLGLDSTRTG

pIC50 | SMILES
< 5.13 | N#Cc1ccc(Oc2ccc(S(=O)(=O)Nc3ncns3)cc2C#N)cc1 [Example 15, 3-cyano-4-(4-cyanophenoxy)-N-(1,2,4-thiadiazol-5-yl)benzenesulfonamide diethylamine salt]
6.37 | N#Cc1cc(S(=O)(=O)Nc2ncns2)ccc1Oc1ccc(Cl)cc1Cl [Example 16, 3-cyano-4-(4,6-dichlorophenoxy)-N-(1,2,4-thiadiazol-5-yl)benzenesulfonamide]
6.79 | CCOc1ncccc1Oc1ccc(S(=O)(=O)Nc2ncns2)cc1C#N [Example 17, 3-cyano-4-[(2-ethoxypyridin-3-yl)oxy]-N-(1,2,4-thiadiazol-5-yl)benzenesulfonamide diethylamine salt]
< 5.00 | COc1ccncc1Oc1ccc(S(=O)(=O)Nc2ncns2)cc1C#N [Example 18, 3-cyano-4-[(4-methoxypyridin-3-yl)oxy]-N-(1,2,4-thiadiazol-5-yl)benzenesulfonamide]
< 5.00 | N#Cc1cc(S(=O)(=O)Nc2ncns2)ccc1Oc1cncc(Cl)c1 [Example 19, 4-[(5-chloropyridin-3-yl)oxy]-3-cyano-N-(1,2,4-thiadiazol-5-yl)benzenesulfonamide]
< 5.12 | COc1ccc(Oc2ccc(S(=O)(=O)Nc3ncns3)cc2C#N)cn1 [Example 20, 3-cyano-4-[(6-methoxypyridin-3-yl)oxy]-N-(1,2,4-thiadiazol-5-yl)benzenesulfonamide]
< 5.00 | N#Cc1cc(S(=O)(=O)Nc2ncns2)ccc1Oc1ccc(C(F)(F)F)nc1 [Example 21, 3-cyano-N-(1,2,4-thiadiazol-5-yl)-4-{[6-(trifluoromethyl)pyridin-3-yl]oxy}benzenesulfonamide]
5.50 | N#Cc1cc(Cl)ccc1Oc1ccc(S(=O)(=O)Nc2ncns2)cc1C#N [Example 22, 4-(4-chloro-2-cyanophenoxy)-3-cyano-N-(1,2,4-thiadiazol-5-yl)benzenesulfonamide]
< 5.00 | N#Cc1ccc(Oc2ccc(S(=O)(=O)Nc3ncns3)cc2C#N)c(OC(F)F)c1 [Example 23, 3-cyano-4-[4-cyano-2-(difluoromethoxy)phenoxy]-N-(1,2,4-thiadiazol-5-yl)benzenesulfonamide]
< 5.00 | N#Cc1ccc(OC(F)F)c(Oc2ccc(S(=O)(=O)Nc3ncns3)cc2C#N)c1 [Example 24, 3-cyano-4-[5-cyano-2-(difluoromethoxy)phenoxy]-N-(1,2,4-thiadiazol-5-yl)benzenesulfonamide diethylamine salt]
< 5.00 | COc1cc(C(F)(F)F)ccc1Oc1ccc(S(=O)(=O)Nc2ncns2)cc1C#N [Example 25, 3-cyano-4-[2-methoxy-4-(trifluoromethyl)phenoxy]-N-(1,2,4-thiadiazol-5-yl)benzenesulfonamide diethylamine salt]
6.06 | COc1cc(Cl)cc(Cl)c1Oc1ccc(S(=O)(=O)Nc2ncns2)cc1C#N [Example 26, 3-cyano-4-(2,4-dichloro-6-methoxyphenoxy)-N-(1,2,4-thiadiazol-5-yl)benzenesulfonamide diethylamine salt]
< 5.00 | COc1cc(OC(F)(F)F)ccc1Oc1ccc(S(=O)(=O)Nc2ncns2)cc1C#N [Example 27, 3-cyano-4-[2-methoxy-4-(trifluoromethoxy)phenoxy]-N-(1,2,4-thiadiazol-5-yl)benzenesulfonamide diethylamine salt]
< 5.13 | COc1ccc(OC(F)(F)F)cc1Oc1ccc(S(=O)(=O)Nc2ncns2)cc1C#N [Example 28, 3-cyano-4-[2-methoxy-5-(trifluoromethoxy)phenoxy]-N-(1,2,4-thiadiazol-5-yl)benzenesulfonamide diethylamine salt]
< 5.22 | COc1ccc(C(F)(F)F)cc1Oc1ccc(S(=O)(=O)Nc2ncns2)cc1C#N [Example 29, 3-cyano-4-[2-methoxy-5-(trifluoromethyl)phenoxy]-N-(1,2,4-thiadiazol-5-yl)benzenesulfonamide diethylamine salt]
6.22 | N#Cc1cc(S(=O)(=O)Nc2ncns2)ccc1Oc1ccc(Cl)cc1OC1CCC1 [Example 30, 4-[4-chloro-2-(cyclobutyloxy)phenoxy]-3-cyano-N-(1,2,4-thiadiazol-5-yl)benzenesulfonamide diethylamine salt]
5.65 | N#Cc1cc(S(=O)(=O)Nc2ncns2)ccc1Oc1cc(Cl)ccc1OC(F)F [Example 31, 4-[5-chloro-2-(difluoromethoxy)phenoxy]-3-cyano-N-(1,2,4-thiadiazol-5-yl)benzenesulfonamide]
6.01 | N#Cc1cc(S(=O)(=O)Nc2ncns2)ccc1Oc1ccc(Cl)cc1OC(F)(F)F [Example 32, 4-[4-chloro-2-(trifluoromethoxy)phenoxy]-3-cyano-N-(1,2,4-thiadiazol-5-yl)benzenesulfonamide diethylamine salt]
5.21 | N#Cc1cc(S(=O)(=O)Nc2ncns2)ccc1Oc1ccc(C(F)(F)F)cc1C(F)(F)F [Example 33, 4-[2,4-bis(trifluoromethyl)phenoxy]-3-cyano-N-(1,2,4-thiadiazol-5-yl)benzenesulfonamide]
5.36 | N#Cc1cc(S(=O)(=O)Nc2ncns2)ccc1Oc1ccccc1C(F)(F)F [Example 35, 3-cyano-4-(2-(trifluoromethyl)phenoxy)-N-(1,2,4-thiadiazol-5-yl)benzenesulfonamide]
5.71 | N#Cc1cc(S(=O)(=O)Nc2ncns2)ccc1Oc1ccccc1F [Example 36, 3-cyano-4-(2-fluorophenoxy)-N-(1,2,4-thiadiazol-5-yl)benzenesulfonamide]
< 5.15 | CC(C)(C)c1ccc(Oc2ccc(S(=O)(=O)Nc3ncns3)cc2C#N)c(Cl)c1 [Example 38, 4-(4-tert-butyl-2-chlorophenoxy)-3-cyano-N-(1,2,4-thiadiazol-5-yl)benzenesulfonamide]
6.00 | Cc1cc(F)ccc1Oc1ccc(S(=O)(=O)Nc2ncns2)cc1C#N [Example 39, 3-cyano-4-(4-fluoro-2-methylphenoxy)-N-(1,2,4-thiadiazol-5-yl)benzenesulfonamide]
< 5.53 | Cc1ccc(Cl)cc1Oc1ccc(S(=O)(=O)Nc2ncns2)cc1C#N [Example 40, 4-(5-chloro-2-methylphenoxy)-3-cyano-N-(1,2,4-thiadiazol-5-yl)benzenesulfonamide]
5.87 | Cc1ccc(F)cc1Oc1ccc(S(=O)(=O)Nc2ncns2)cc1C#N [Example 41, 3-cyano-4-(5-fluoro-2-methylphenoxy)-N-(1,2,4-thiadiazol-5-yl)benzenesulfonamide]
< 5.51 | Cc1cc(Cl)ccc1Oc1ccc(S(=O)(=O)Nc2ncns2)cc1C#N [Example 42, 4-(4-chloro-2-methylphenoxy)-3-cyano-N-(1,2,4-thiadiazol-5-yl)benzenesulfonamide]
6.06 | N#Cc1cc(S(=O)(=O)Nc2ncns2)ccc1Oc1ccc(F)cc1F [Example 43, 3-cyano-4-(2,4-difluorophenoxy)-N-(1,2,4-thiadiazol-5-yl)benzenesulfonamide]
5.36 | N#Cc1cc(S(=O)(=O)Nc2ncns2)ccc1Oc1cc(C(F)(F)F)ccc1F [Example 44, 3-cyano-4-[2-fluoro-5-(trifluoromethyl)phenoxy]-N-(1,2,4-thiadiazol-5-yl)benzenesulfonamide]
5.99 | N#Cc1cc(S(=O)(=O)Nc2ncns2)ccc1Oc1cc(C(F)(F)F)ccc1Cl [Example 45, 4-[2-chloro-5-(trifluoromethyl)phenoxy]-3-cyano-N-(1,2,4-thiadiazol-5-yl)benzenesulfonamide]
6.30 | N#Cc1cc(S(=O)(=O)Nc2ncns2)ccc1Oc1ccc(F)cc1Cl [Example 46, 4-(2-chloro-4-fluorophenoxy)-3-cyano-N-(1,2,4-thiadiazol-5-yl)benzenesulfonamide]
